These results are taken from patent publication US6294568A, “5-arylpyrrole derivatives” (priority 1997, dated 2001).

One test has as its system carrageenan footedema. Nature of the test: Carrageenan Footedema Suppression Test. In kind it is in vivo, SD rats. To be noted: oral; paw volume three hours after carrageenan administration.
The test system of the next test is CaCo-2 cells. Nature of the test: Apoptosis Induction Test in CaCo-2 Cells. To be noted: 24 hours, propidium iodide staining, fluorescence microscope. In kind it is cell-based. On the procedure:
CaCo-2 cells were adjusted in 10% FBS/DMEM/NEAA to 1.0×10^5 cells/ml concentration and then pipetted into a 6 well plate in an amount of 3 ml/well. The cells were cultured under the conditions of at 37° C. in 5% CO2 atmosphere for 24 hours to allow the cell adhesion. Only the medium solution (0.1% ethanol) was exchanged in the control group, and the compound of the invention (Preparation Example 1) group was transferred to culture mediums containing the compound adjusted to each of the specified concentrations, then the cells were cultured under the condition of at 37° C. in 5% CO2 atmosphere for 24 hours. Then the culture medium and the adhesive cells separated of the adhesion by trypsin were collected and centrifuged at 1000 rpm for 5 minutes to remove the supernatant. The cells were washed with PBS(-) and then 20 μl of 90% ethanol/0.5% triton×100/10mM EDTA/10mM Tris-HCl (pH7.4) and 5 μl of propidium iodide (1 μg/ml) were added thereto to stain the nucleuses. A drop of the stained cell solution was placed on a preparation glass to be examined by a fluorescence microscope at B range.

Another test relates to adjuvant arthritis. Put plainly: Rat Adjuvant Arthritis Test. The test is classed as in vivo, SD rats. To be noted: 3 mg/kg, oral. The method, then:
SD rats were injected subcutaneously with […] liquid paraffin/rat of H-37RA strain in the plantar area of the right hind paw. Only liquid paraffin (0.05 ml) was administered to control groups in the same manner. 21 days after the administration, rats showing the evidence of arthritis were selected and divided into groups having equal mean left and right hind paw volumes, and also having equal arthritis scores. From the date of the grouping, the test samples were administered orally to the rats once daily for 7 days (only the solvent was administered to the negative and positive control groups). The degree of the arthritis was quantitatively evaluated by measuring the volumes of the left and right hind paws by using a volume meter (manufactured by Muromachi Kikai) and by scoring the degree of arthritis by macroscopic observation as illustrated in Table 2. According to the scoring criteria in Table 2, 15 is a perfect score.
The dosage of each of the test samples was 3 mg/kg.

The next test concerns the target T1, Human COX-1 (Homo sapiens, UniProt P23219).
T1 construct: endogenous in cells; host or cells: whole blood of a healthy human donor (own knowledge: TXB2 of clotting blood comes from platelet COX-1)
Put plainly: Human COX-1 Inhibitory Activity Test (TXB2 in blood). To be noted: IC50 from Hill Plot. In kind it is cell-based.

T1 sequence (P23219 24-599): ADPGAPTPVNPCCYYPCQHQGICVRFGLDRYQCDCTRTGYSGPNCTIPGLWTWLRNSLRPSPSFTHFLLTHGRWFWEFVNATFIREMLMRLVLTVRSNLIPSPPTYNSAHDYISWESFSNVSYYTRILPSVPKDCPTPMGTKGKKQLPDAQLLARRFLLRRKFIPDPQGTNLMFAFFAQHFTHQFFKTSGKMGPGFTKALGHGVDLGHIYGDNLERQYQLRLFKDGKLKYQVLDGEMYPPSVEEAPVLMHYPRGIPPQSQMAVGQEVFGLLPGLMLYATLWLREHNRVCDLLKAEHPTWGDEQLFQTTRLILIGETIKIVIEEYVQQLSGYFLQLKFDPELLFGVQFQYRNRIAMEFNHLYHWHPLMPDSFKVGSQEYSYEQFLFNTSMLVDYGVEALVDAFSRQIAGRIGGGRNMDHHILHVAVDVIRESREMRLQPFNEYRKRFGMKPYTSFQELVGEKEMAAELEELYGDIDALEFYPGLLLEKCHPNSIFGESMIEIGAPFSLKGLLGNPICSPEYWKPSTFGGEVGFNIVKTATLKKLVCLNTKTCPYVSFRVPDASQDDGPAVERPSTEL

In general, IC50 refers to the concentration that inhibits the measured activity by half. A low value points to greater potency in that assay. `Cc1cc(-c2ccc(F)cc2)c(-c2ccc(S(C)(=O)=O)cc2)[nH]1` [Preparation Example 1, 4-(4-fluorophenyl)-2-methyl-5-(4-methylsulfonylphenyl)-1H-pyrrole]: in the test with carrageenan footedema, the “Edematization Suppression rate” value turned out to be 35.5%. The “cell apoptosis” value in the test on CaCo-2 cells is given as “cell apoptosis caused by the compound of the invention was observed”. The “Right Hind Paw Volume day 21” value with adjuvant arthritis (day 21 (starting date of administration), once daily) was determined as 3.86 mL. Also, the “Right Hind Paw Volume day 27” value with adjuvant arthritis (day 27, once daily for 7 days) was found to be 2.96 mL. Further, on Human COX-1, the half-inhibitory concentration (IC50) amounted to 649 µM.
